Bridge positions count the residues as written; N and C are the ends. Square brackets hold non-standard residues; d marks the D form. Peptide text beside a SMILES is read from it.
Columns and labels:
Gram-positive bacteria [1] = test: minimum inhibitory concentration (MIC) assays against four types of Gram-positive bacteria; format: cell-based; settings: for MIC: four Gram-positive bacteria studied, homologues as TFA salts; for antibiotic activity in MIC assays, result in words: Gram-positive bacteria, mostly compared with Arg10-teixobactin; for MIC values lower than those of Arg10-teixobactin (fold): relative to Arg10-teixobactin; for MIC values: four species of Gram-positive bacteria
Description: The antibiotic activity of Arg10-teixobactin and homologues was investigated in minimum inhibitory concentration (MIC) assays against four types of Gram-positive bacteria, as well as control substances, in order to elucidate the importance of various functionalities within teixobactin analogues and guide the rational design of new antimicrobial compounds (as summarized in Tables 1, 2 and 3 (FIGS. 5A, 5B, and 5C respectively). These MIC studies used vancomycin as a positive control and the Gram-negative bacterium E. coli as a negative control.

[2] = gel formation / solubility; format: physicochemical; settings: propensity to form a gel
Description: In addition, according to many embodiments of the invention, teixobactin homologues can be functionalized at position 9 to improve solubility for easier or more efficient drug administration. For example, Arg10-teixobactin has the propensity to form a gel at concentrations as low as 5 mg/mL. This poor solubility will hamper the ability of Arg10-teixobactin or any other teixobactin derivative to be used as a drug because it will impede intravenous administration. […] More specifically, in some embodiments of the invention the water solubility of teixobactin analogues can be improved by functionalization of position 9 with polyethylene glycol (PEG) derivatives. In one embodiment, Ala9 is replaced with a PEG-containing amino acid, such as Gln(PEG6OMe), the derivative of Glu, in which the side chain has been coupled to H2NCH2CH2(OCH2CH2)5OMe.

Gram-positive bacteria [3] = settings: literature structure-activity studies; cited from earlier work

Compound	antibiotic activity in MIC assays, result in words (Gram-positive bacteria [1])	other results
CC[C@H](C)[C@H](NC(=O)[C@@H](Cc1ccccc1)NC)C(=O)N[C@@H](CO)C(=O)N[C@H](CCC(N)=O)C(=O)N[C@@H](C(=O)N[C@H](C(=O)N[C@@H](CO)C(=O)N[C@H]1C(=O)N[C@@H](C)C(=O)N[C@@H](CCCNC(=N)N)C(=O)N[C@@H]([C@@H](C)CC)C(=O)O[C@H]1C)[C@@H](C)CC)[C@@H](C)CC [Arg10-teixobactin]	–	MIC (Gram-positive bacteria [1]): 1 to 4 µg/mL; concentration at which a gel forms [2]: ≥ 5000 µg/mL; activity relative to teixobactin in MIC assays (Gram-positive bacteria [3]): about an order of magnitude less active
CC[C@H](C)[C@H](N)C(=O)N[C@@H](CO)C(=O)N[C@H]1C(=O)N[C@@H](C)C(=O)N[C@@H](CCCNC(=N)N)C(=O)N[C@@H]([C@@H](C)CC)C(=O)O[C@H]1C [short-Arg10-teixobactin] (H-IS[dT]ARI; ester 3-C)	–	MIC (Gram-positive bacteria [1]): > 32 µg/mL
Ac-Δ1-5-Arg10-teixobactin	inactive	–
Ala3,Lys10-teixobactin	diminished the activity of position 10 lysine analogue	–
Ala7,Arg10-teixobactin	greatly diminished activity	–
Arg10Lys11-teixobactin	loss of activity	–
Chg6,Arg10,Chg11-teixobactin	slightly greater activity than Arg10-teixobactin	MIC values lower than those of Arg10-teixobactin (fold) (Gram-positive bacteria [1]): lower by a factor of two
D-Dap8,Arg10-teixobactin	comparable activity to Arg10-teixobactin	–
D-allo-Ile11,Arg10-teixobactin	half as active	–
Glu(PEG-Biotinyl)9,Lys10-teixobactin	–	MIC values (Gram-positive bacteria [1]): 2-16 micrograms/mL
Lys6Arg10-teixobactin	loss of activity	–
Lys9Arg10-teixobactin	–	antibiotic activity in MIC assays, result in words (Gram-positive bacteria [1]; listed as Lys9,Arg10-teixobactin): proven activity
Lys10-teixobactin	comparable to those of vancomycin	MIC values lower than those of Arg10-teixobactin (fold) (Gram-positive bacteria [1]): 2-4 times
Lys(Mca)9,Lys10-teixobactin	–	MIC values (Gram-positive bacteria [1]): 1-8 micrograms/mL
Orn10-teixobactin	excellent to satisfactory antimicrobial activity	–
dodecanoyl-Δ1-5-Arg10-teixobactin [lipobactin 1]	activity close to that of Arg10-teixobactin	–
ent-Arg10-teixobactin	comparable activity to Arg10-teixobactin	–
